In publication PMC6770581, “New Thalidomide-Resembling Dicarboximides Target ABC50 Protein and Show Antileukemic and Immunomodulatory Activities” (Biomolecules, 2019) one finds IC50 data, which are given here for 9 molecules.

One assay relates to MOLT-4 cells. Briefly: MTT cytotoxicity assay, MOLT-4. Format: cell-based. To be noted: Homo sapiens, 48 h, mean ± SD. The procedure:
(§1) Human umbilical vein endothelial cells (purchased from Life Technologies, Carlsbad, CA, USA) were cultured according to the manufacturer’s instructions in Medium 200 supplemented with Low Serum Growth Supplement. 1 × 10^4 cells were seeded on each well on a 96-well plate (Nunc, Roskilde, Denmark). The HeLa (human cervix carcinoma, cat. #93021013), CFPAC (human pancreatic adenocarcinoma, cat. #91112501), K562 (chronic myelogenous leukemia, cat. #89121407), HL-60 (acute myelogenous leukemia, cat. #98070106), and MOLT-4 (Human acute T lymphoblastic leukemia, cat. #85011413) cells were purchased from European Collection of Authenticated Cell Cultures (ECACC). They were cultured in an RPMI 1640 medium supplemented with antibiotics (streptomycin, penicillin) and 10% fetal calf serum (20% for HL60), in a 5% CO2-95% air atmosphere. 7 × 10^3 cells were seeded on each well on a 96-well plate (Nunc). 24 hours later the cells were exposed to the test compounds. The aliquots of stock solutions of the test compounds (freshly prepared in DMSO) were added to the cell cultures to yield final concentrations of 1, 10^−1, 10^−2, 10^−3, 10^−4, and 10^−5 mM. The concentration of DMSO in the cell culture medium was 1%. The IC50 value (the concentration of a test compound required to reduce the cell survival fraction to 50% of the control) was calculated from a dose-response curve and used as a measure of cellular sensitivity to a given treatment. The IC50 values are given as means (± standard deviation (SD)) from 2 independent experiments with 4 technical replicates. The cytotoxicity of all compounds was determined by the MTT (3-(4,5-dimethylthiazol-2-yl)-2,5-diphenyltetrazolium bromide) assay (Sigma, St. Louis, MO, USA). Briefly, after 24 h or 48 h of incubation with a given compound, the cells were treated with the MTT reagent and incubation was continued for 2 h. MTT-formazan crystals were dissolved in 20% SDS and 50% DMF at pH 4.7 and VIS light absorption was measured at 570 and 650 nm on a microplate reader FLUOstar Omega (BMG Labtech, Offenburg, Germany). As a control (100% viability), cells grown in the presence of 1% DMSO were used.
(Tetrazolium assays rely on reduction of a dye to a coloured formazan, in cell work by metabolically active cells.)

Another assay deals with CFPAC cells. Briefly: MTT cytotoxicity assay, CFPAC. Format: cell-based. To be noted: Homo sapiens, 48 h, mean ± SD. Here is the method: as §1
Assay [1] relates to HeLa cells. To be noted: 48 h, MTT, mean ± SD; cited from earlier work.
Assay [2] has as its system K562 cells. The settings on record: 48 h, MTT, mean ± SD; cited from earlier work.
The next assay concerns HL-60 cells. The settings on record: 48 h, MTT, mean ± SD; cited from earlier work.
Assay [3] relates to HUVEC (human umbilical vein endothelial cells). To be noted: 48 h, MTT, mean ± SD; cited from earlier work.
The subject of assay [4] is HeLa cells. The experiment in a line: MTT cytotoxicity assay, HeLa. Format: cell-based. The settings on record: Homo sapiens, 48 h, mean ± SD. Here is the method:
as §1

In assay [5] the test system is K562 cells. Briefly: MTT cytotoxicity assay, K562. To be noted: Homo sapiens, 48 h, mean ± SD. Format: cell-based. The procedure:
as §1

For assay [6], the system named is HUVEC (human umbilical vein endothelial cells). Briefly: MTT cytotoxicity assay, HUVEC. Format: cell-based. The settings on record: 48 h, mean ± SD. Here is the method:
as §1

Read-outs that look alike come from different tables or passages of the source.

As a reminder, the IC50 is the concentration that gives 50% inhibition. `CCC12C(=O)C(CC)(C(c3ccccc3)=C1c1ccccc1)C1C(=O)N(CCN(C)C)C(=O)C12` (stereo not drawn) [Compound 1]: the half-inhibitory concentration (IC50) in the assay on MOLT-4 cells was 20 ± 2.7 µM; in the assay on CFPAC cells, above 1000 µM; in the assay on HeLa cells [1], above 100 µM; in the assay with K562 cells [2] it was 10 ± 0.59 µM; with HL-60 cells, above 100 µM; in assay [3], above 100 µM.
Turning to `CCN(CC)CCN1C(=O)C2C(C1=O)C1(CC)C(=O)C2(CC)C(c2ccccc2)=C1c1ccccc1` (stereo not drawn) [Compound 2], the IC50 is 30 ± 2.3 µM in the assay on MOLT-4 cells; above 1000 µM in the assay on CFPAC cells; above 100 µM with HeLa cells [1]; 4.5 ± 0.29 µM in the assay with K562 cells [2]; above 100 µM with HL-60 cells; above 100 µM in assay [3].
In the case of `CCC12C(=O)C(CC)(C(c3ccccc3)=C1c1ccccc1)C1C(=O)N(CCCN(C)C)C(=O)C12` (stereo not drawn) [Compound 4], the IC50 in the assay on MOLT-4 cells is 30 ± 2 µM; in the assay with CFPAC cells, above 1000 µM; in the assay on HeLa cells [1], above 100 µM; in the assay on K562 cells [2], 8 ± 0.53 µM; in the assay with HL-60 cells, above 100 µM; in assay [3], above 100 µM.
Take `NCC(O)CN1C(=O)C2C(C1=O)C1(c3ccccc3)CC2(c2ccccc2)C(c2ccccc2)=C1c1ccccc1` (stereo not drawn) [Compound 6a, 4-[-3-(amino)-2-hydroxypropyl]-1,7,8,9-tetraphenyl-4-azatricyclo[5.2.1.0^2,6]dec-8-ene-3,5-dione]: the half-inhibitory concentration (IC50) in the assay with HeLa cells [4] is 20 ± 1.9 µM; in the assay on K562 cells [5], 12 ± 1.5 µM; in assay [6], above 100 µM; in the assay with MOLT-4 cells, 5 ± 0.59 µM.
With `CC(C)C[C@H](NC(=O)[C@H](Cc1ccccc1)NC(=O)c1cnccn1)B(O)O` [bortezomib, reference compound], the 50% inhibitory concentration (IC50) in the assay with HeLa cells [1] was 0.05 ± 0.01 µM; in the assay with K562 cells [2] it was 0.04 ± 0.01 µM; in the assay with HL-60 cells, 0.3 ± 0.1 µM; in assay [3], below 0.01 µM.
Turning to `Nc1ccn([C@@H]2O[C@H](CO)[C@@H](O)[C@@H]2O)c(=O)n1` [cytarabine, reference compound], the half-maximal inhibitory concentration (IC50) in the assay with HeLa cells [1] is above 1000 µM; in the assay with K562 cells [2], 300 ± 19 µM; in the assay on HL-60 cells it was 300 ± 18 µM; in assay [3], above 1000 µM.
Consider `COc1cccc2c1C(=O)c1c(O)c3c(c(O)c1C2=O)C[C@@](O)(C(=O)CO)C[C@@H]3O[C@H]1C[C@H](N)[C@H](O)[C@H](C)O1` [doxorubicin, reference compound], for which the 50% inhibitory concentration (IC50) was 0.5 ± 0.01 µM in the assay with HeLa cells [1], 0.15 ± 0.01 µM in the assay with K562 cells [2], 0.15 ± 0.03 µM in the assay with HL-60 cells and 0.1 ± 0.03 µM in [3].
On to `CCc1c2c(nc3ccc(OC(=O)N4CCC(N5CCCCC5)CC4)cc13)-c1cc3c(c(=O)n1C2)COC(=O)[C@]3(O)CC` [irinotecan, reference compound], for which the IC50 was 200 ± 11 µM in the assay with HeLa cells [1], 10 ± 0.9 µM in the assay on K562 cells [2], 70 ± 2.5 µM with HL-60 cells and 30 ± 3.7 µM in [3].
As to `CNC(=O)c1cc(Oc2ccc(NC(=O)Nc3ccc(Cl)c(C(F)(F)F)c3)cc2)ccn1` [sorafenib, reference compound], the IC50 in the assay on HeLa cells [1] is 20 ± 2.6 µM; in the assay with K562 cells [2], 3 ± 0.3 µM; with HL-60 cells, 15 ± 0.6 µM; in assay [3] it was 20 ± 4.1 µM.
